# According to ChEMBL document CHEMBL4420076, “Amylin and calcitonin receptor agonist” (2017):
# Numbered stars: 1 amine (or outer) side, 2 acyl side, 3 side chain; on linkers, the order of the positions; unused ones are H or OH. Square brackets hold non-standard residues; d marks the D form. Peptide text beside a SMILES is read from it. * marks the point of attachment. ξ: configuration not given here. C20 diacid = O=C(O)CCCCCCCCCCCCCCCCCCC(=O)*; C18 diacid = O=C(O)CCCCCCCCCCCCCCCCC(=O)*; γGlu = O=C(O)[C@H](CCC(=O)[*:2])N[*:1]; Ile(3ξ) = CCC(C)[C@H](N)C(=O)O
# Legend:
# [1] = Solubility in 100 mM glycylglycine buffer at pH 4.0 incubated for 18 hrs by UPLC analysis; type: physicochemical
# [2] = target: T1, Calcitonin receptor (Homo sapiens, UniProt P30988); assay: Agonist activity at human calcitonin receptor expressed in BHK570 cells assessed as increase in intracellular cAMP concentration incubated for 3 hrs in absence of albumin by CRE luciferase reporter gene assay; type: functional, cell-based
# T1 sequence (P30988 whole entry): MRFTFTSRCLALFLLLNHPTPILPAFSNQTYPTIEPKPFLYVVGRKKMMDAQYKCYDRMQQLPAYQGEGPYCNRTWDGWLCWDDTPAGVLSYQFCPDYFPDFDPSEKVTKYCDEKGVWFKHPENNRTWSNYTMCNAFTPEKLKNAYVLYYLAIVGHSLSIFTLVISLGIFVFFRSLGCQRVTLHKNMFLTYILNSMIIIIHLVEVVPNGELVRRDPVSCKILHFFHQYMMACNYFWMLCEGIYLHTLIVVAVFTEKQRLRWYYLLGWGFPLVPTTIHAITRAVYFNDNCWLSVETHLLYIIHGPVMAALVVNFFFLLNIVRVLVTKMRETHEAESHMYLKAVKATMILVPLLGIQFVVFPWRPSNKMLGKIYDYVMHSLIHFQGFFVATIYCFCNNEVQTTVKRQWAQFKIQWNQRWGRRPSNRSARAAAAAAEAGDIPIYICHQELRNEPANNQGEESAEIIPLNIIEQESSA
# [3] = Solubility in 100 mM glycylglycine buffer at pH 3.0 incubated for 18 hrs by UPLC analysis; type: physicochemical
# [4] = Solubility in 100 mM bistrispropane buffer at pH 7.0 incubated for 18 hrs by UPLC analysis; type: physicochemical
# [5] = Solubility in 100 mM glycylglycine buffer at pH 5.0 incubated for 18 hrs by UPLC analysis; type: physicochemical
# [6] = Solubility in 100 mM bistrispropane buffer at pH 7.5 incubated for 18 hrs by UPLC analysis; type: physicochemical
# [7] = Solubility in 100 mM bistrispropane buffer at pH 8.0 incubated for 18 hrs by UPLC analysis; type: physicochemical
# [8] = target: T2, Amylin receptor AMY3; CALCR/RAMP3 (Homo sapiens, UniProt O60896+P30988); assay: Agonist activity at human amylin receptor expressed in BHK570 cells co-expressing RAMP3 assessed as increase in intracellular cAMP concentration incubated for 3 hrs in absence of albumin by CRE luciferase reporter gene assay; type: functional, cell-based
# T2 sequence (P30988 whole entry): T1 sequence (P30988 whole entry)
# T2 sequence (O60896 whole entry): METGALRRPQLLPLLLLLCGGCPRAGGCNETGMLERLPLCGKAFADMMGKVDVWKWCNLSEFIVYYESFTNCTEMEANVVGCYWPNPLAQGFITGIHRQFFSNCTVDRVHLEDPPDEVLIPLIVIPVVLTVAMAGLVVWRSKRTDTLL
# [9] = Solubility in 100 mM bistrispropane buffer at pH 6.0 incubated for 18 hrs by UPLC analysis; type: physicochemical
# [10] = Solubility in 100 mM bistrispropane buffer at pH 6.5 incubated for 18 hrs by UPLC analysis; type: physicochemical
# [11] = target: T1, Calcitonin receptor; assay: Agonist activity at human calcitonin receptor expressed in BHK570 cells assessed as increase in intracellular cAMP concentration incubated for 3 hrs in presence of 10% FBS by CRE luciferase reporter gene assay; type: functional, cell-based
Structure (SMILES),solubility at 18 h [1] [µM],EC50 [2] [nM],solubility at 18 h [3] [µM],solubility at 18 h [4] [µM],solubility at 18 h [5] [µM],solubility at 18 h [6] [µM],solubility at 18 h [7] [µM],EC50 [8] [nM],solubility at 18 h [9] [µM],solubility at 18 h [10] [µM],EC50 [11] [nM]
CC(C)C[C@H](NC(=O)[C@H](CCC(=O)O)NC(=O)[C@H](Cc1cnc[nH]1)NC(=O)[C@H](CC(C)C)NC(=O)[C@H](CCC(=O)O)NC(=O)[C@H](C)NC(=O)[C@H](CO)NC(=O)[C@H](CC(C)C)NC(=O)[C@H](CCCNC(=N)N)NC(=O)CNC(=O)[C@H](CC(C)C)NC(=O)[C@@H](NC(=O)[C@H](C)NC(=O)[C@@H](NC(=O)[C@H](CO)NC(=O)[C@H](CC(C)C)NC(=O)[C@@H]1CCCN1C(=O)[C@@H]1CCCN1C(=O)[C@H](C)NC(=O)[C@H](CCC(=O)O)NC(=O)CCCCCCCCCCCCCCCCC(=O)O)[C@@H](C)O)C(C)C)C(=O)N[C@@H](C)C(=O)N[C@H](C(=O)N[C@@H](CC(C)C)C(=O)N1CCC[C@H]1C(=O)N[C@@H](CCCNC(=N)N)C(=O)N[C@H](C(=O)N[C@@H](CCC(=O)O)C(=O)N[C@H](C(=O)NCC(=O)N1CCC[C@H]1C(=O)N[C@@H](CCC(=O)O)C(=O)N[C@@H](CO)C(=O)N1CCC[C@H]1C(N)=O)[C@@H](C)O)[C@@H](C)O)[C@@H](C)O ({C18 diacid}-EAPPLSTAVLGRLSAELHELATLPRTETGPESP-NH2),≥ 200,0.006,≥ 200,≥ 200,≥ 200,≥ 200,≥ 200,0.012,≥ 200,≥ 200,–
CC(C)C[C@H](NC(=O)[C@H](C)NC(=O)[C@@H](NC(=O)[C@H](CO)NC(=O)[C@H](CC(C)C)NC(=O)[C@H](CCC(=O)O)NC(=O)[C@H](CO)NC(=O)[C@H](C)NC(=O)[C@H](CCC(=O)O)NC(=O)CCCCCCCCCCCCCCCCC(=O)O)[C@@H](C)O)C(=O)N[C@@H](C)C(=O)NCC(=O)N[C@@H](CCCNC(=N)N)C(=O)N[C@@H](CC(C)C)C(=O)N[C@@H](CO)C(=O)N[C@@H](C)C(=O)N[C@@H](CCC(=O)O)C(=O)N[C@@H](CC(C)C)C(=O)N[C@@H](Cc1cnc[nH]1)C(=O)N[C@@H](CCC(=O)O)C(=O)N[C@@H](CC(C)C)C(=O)N[C@@H](C)C(=O)N[C@H](C(=O)N[C@@H](CC(C)C)C(=O)N1CCC[C@H]1C(=O)N[C@@H](CCCNC(=N)N)C(=O)N[C@H](C(=O)N[C@@H](CCC(=O)O)C(=O)N[C@H](C(=O)NCC(=O)N1CCC[C@H]1C(=O)N[C@@H](CCC(=O)O)C(=O)N[C@@H](CO)C(=O)N1CCC[C@H]1C(N)=O)[C@@H](C)O)[C@@H](C)O)[C@@H](C)O ({C18 diacid}-EASELSTALAGRLSAELHELATLPRTETGPESP-NH2),≥ 200,0.004,≥ 200,≥ 200,≥ 200,≥ 200,≥ 200,0.008,≥ 200,≥ 200,–
CC(C)C[C@H](NC(=O)[C@H](C)NC(=O)[C@@H](NC(=O)[C@H](CO)NC(=O)[C@H](CC(C)C)NC(=O)[C@H](CCC(=O)O)NC(=O)[C@H](CO)NC(=O)[C@H](C)NC(=O)[C@H](CCC(=O)O)NC(=O)CCCCCCCCCCCCCCCCC(=O)O)[C@@H](C)O)C(=O)N[C@@H](CC(C)C)C(=O)NCC(=O)N[C@@H](CCCNC(=N)N)C(=O)N[C@@H](CC(C)C)C(=O)N[C@@H](CO)C(=O)N[C@@H](C)C(=O)N[C@@H](CCC(=O)O)C(=O)N[C@@H](CC(C)C)C(=O)N[C@@H](Cc1cnc[nH]1)C(=O)N[C@@H](CCC(=O)O)C(=O)N[C@@H](CC(C)C)C(=O)N[C@@H](C)C(=O)N[C@H](C(=O)N[C@@H](CC(C)C)C(=O)N1CCC[C@H]1C(=O)N[C@@H](CCCNC(=N)N)C(=O)N[C@H](C(=O)N[C@@H](CCC(=O)O)C(=O)N[C@H](C(=O)NCC(=O)N1CCC[C@H]1C(=O)N[C@@H](CCC(=O)O)C(=O)N[C@@H](CO)C(=O)N1CCC[C@H]1C(N)=O)[C@@H](C)O)[C@@H](C)O)[C@@H](C)O ({C18 diacid}-EASELSTALLGRLSAELHELATLPRTETGPESP-NH2),≥ 200,0.013,≥ 200,≥ 200,≥ 200,≥ 200,≥ 200,0.028,≥ 200,≥ 200,–
CC(C)C[C@H](NC(=O)[C@H](CCC(=O)O)NC(=O)[C@H](Cc1cnc[nH]1)NC(=O)[C@H](CC(C)C)NC(=O)[C@H](CCC(=O)O)NC(=O)[C@H](C)NC(=O)[C@H](CO)NC(=O)[C@H](CC(C)C)NC(=O)[C@H](CCCCN)NC(=O)CNC(=O)[C@H](CC(C)C)NC(=O)[C@@H](NC(=O)[C@H](C)NC(=O)[C@@H](NC(=O)[C@H](CO)NC(=O)[C@H](CC(C)C)NC(=O)[C@H](CCC(=O)O)NC(=O)[C@H](CO)NC(=O)[C@H](C)NC(=O)[C@H](CCC(=O)O)NC(=O)CCCCCCCCCCCCCCCCC(=O)O)[C@@H](C)O)C(C)C)C(=O)N[C@@H](C)C(=O)N[C@H](C(=O)N[C@@H](CC(C)C)C(=O)N1CCC[C@H]1C(=O)N[C@@H](CCCCN)C(=O)N[C@H](C(=O)N[C@@H](CCC(=O)O)C(=O)N[C@H](C(=O)NCC(=O)N1CCC[C@H]1C(=O)N[C@@H](CCC(=O)O)C(=O)N[C@@H](CO)C(=O)N1CCC[C@H]1C(N)=O)[C@@H](C)O)[C@@H](C)O)[C@@H](C)O ({C18 diacid}-EASELSTAVLGKLSAELHELATLPKTETGPESP-NH2),≥ 200,0.008,≥ 200,≥ 200,≥ 200,≥ 200,≥ 200,0.016,≥ 200,≥ 200,–
CCC(C)[C@H](NC(=O)[C@@H](NC(=O)[C@H](C)NC(=O)[C@@H](NC(=O)[C@H](CO)NC(=O)[C@H](CC(C)C)NC(=O)[C@H](CCC(=O)O)NC(=O)[C@H](CO)NC(=O)[C@H](C)NC(=O)[C@H](CCC(=O)O)NC(=O)CCCCCCCCCCCCCCCCC(=O)O)[C@@H](C)O)C(C)C)C(=O)NCC(=O)N[C@@H](CCCNC(=N)N)C(=O)N[C@@H](CC(C)C)C(=O)N[C@@H](CO)C(=O)N[C@@H](C)C(=O)N[C@@H](CCC(=O)O)C(=O)N[C@@H](CC(C)C)C(=O)N[C@@H](Cc1cnc[nH]1)C(=O)N[C@@H](CCC(=O)O)C(=O)N[C@@H](CC(C)C)C(=O)N[C@@H](C)C(=O)N[C@H](C(=O)N[C@@H](CC(C)C)C(=O)N1CCC[C@H]1C(=O)N[C@@H](CCCNC(=N)N)C(=O)N[C@H](C(=O)N[C@@H](CCC(=O)O)C(=O)N[C@H](C(=O)NCC(=O)N1CCC[C@H]1C(=O)N[C@@H](CCC(=O)O)C(=O)N[C@@H](CO)C(=O)N1CCC[C@H]1C(N)=O)[C@@H](C)O)[C@@H](C)O)[C@@H](C)O (stereo partly specified) ({C18 diacid}-EASELSTAV[Ile(3ξ)]GRLSAELHELATLPRTETGPESP-NH2),≥ 200,–,≥ 200,≥ 200,≥ 200,≥ 200,≥ 200,–,≥ 200,≥ 200,–
CC(C)C[C@H](NC(=O)[C@H](CO)NC(=O)[C@H](C)NC(=O)[C@@H](NC(=O)[C@H](CO)NC(=O)[C@H](CC(C)C)NC(=O)[C@H](CCC(=O)O)NC(=O)[C@H](CO)NC(=O)[C@H](C)NC(=O)CC[C@H](NC(=O)CCCCCCCCCCCCCCCCCCC(=O)O)C(=O)O)[C@@H](C)O)C(=O)NCC(=O)N[C@@H](CCCNC(=N)N)C(=O)N[C@@H](CC(C)C)C(=O)N[C@@H](CO)C(=O)N[C@@H](C)C(=O)N[C@@H](CCC(=O)O)C(=O)N[C@@H](CC(C)C)C(=O)N[C@@H](Cc1cnc[nH]1)C(=O)N[C@@H](CCC(=O)O)C(=O)N[C@@H](CC(C)C)C(=O)N[C@@H](C)C(=O)N[C@H](C(=O)N[C@@H](Cc1ccc(O)cc1)C(=O)N1CCC[C@H]1C(=O)N[C@@H](CCCNC(=N)N)C(=O)N[C@H](C(=O)N[C@@H](CCC(=O)O)C(=O)N[C@H](C(=O)NCC(=O)N[C@@H](CO)C(=O)NCC(=O)N[C@@H](CO)C(=O)N[C@@H](Cc1ccc(O)cc1)C(N)=O)[C@@H](C)O)[C@@H](C)O)[C@@H](C)O ({C20 diacid-γGlu}-ASELSTASLGRLSAELHELATYPRTETGSGSY-NH2),–,–,≥ 200,≥ 200,–,≥ 200,≥ 200,0.037,≥ 200,≥ 200,0.042
